{"source": "a polymer gas permeability compilation"}
{"units": {"CH4 permeability": "Barrer", "CO2 permeability": "Barrer", "N2 permeability": "Barrer", "O2 permeability": "Barrer", "H2 permeability": "Barrer"}}
{"smiles": "*Oc1c(C)cc(*)c(C(=O)c2ccc(Br)cc2)c1C", "note": "(repeat unit)", "CH4 permeability": 1.13, "CO2 permeability": 18, "N2 permeability": 2.13, "O2 permeability": 8.45}
{"smiles": "*Nc1ccc(C(c2ccc(NC(=O)c3cc(C(*)=O)cc(-c4ccccc4)c3)cc2)(C(F)(F)F)C(F)(F)F)cc1", "note": "(repeat unit)", "CH4 permeability": 0.78, "CO2 permeability": 21, "H2 permeability": 42, "N2 permeability": 1.2, "O2 permeability": 5.5}
{"smiles": "*c1ccc(Oc2ccc(-c3cccc(-c4ccc(Oc5ccc(N6C(=O)c7ccc(C(c8ccc9c(c8)C(=O)N(*)C9=O)(C(F)(F)F)C(F)(F)F)cc7C6=O)cc5)c(C(F)(F)F)c4)n3)cc2C(F)(F)F)cc1", "note": "(repeat unit)", "CH4 permeability": 1.95, "CO2 permeability": 51.9, "N2 permeability": 1.91, "O2 permeability": 12.2}
{"smiles": "*c1cccc(N2C(=O)c3ccc(C(c4ccc5c(c4)C(=O)N(*)C5=O)(C(F)(F)F)C(F)(F)F)cc3C2=O)c1", "note": "(repeat unit)", "CH4 permeability": 0.163, "CO2 permeability": 9.7, "H2 permeability": 35.5, "N2 permeability": 0.419, "O2 permeability": 2.79}
{"smiles": "*C(=C(*)c1ccc2c(ccc3ccccc32)c1)c1ccccc1", "note": "(repeat unit)", "CH4 permeability": 1450, "CO2 permeability": 5300, "H2 permeability": 2500, "N2 permeability": 650, "O2 permeability": 1300}
{"smiles": "*c1ccc(Oc2ccc3ccccc3c2-c2c(Oc3ccc(N4C(=O)c5ccc(C(c6ccc7c(c6)C(=O)N(*)C7=O)(C(F)(F)F)C(F)(F)F)cc5C4=O)cc3C(F)(F)F)ccc3ccccc23)c(C(F)(F)F)c1", "note": "(repeat unit)", "CH4 permeability": 0.41, "CO2 permeability": 25.9, "H2 permeability": 36.8, "N2 permeability": 0.78, "O2 permeability": 4.89}
{"smiles": "*Oc1ccc2c(c1)C1(CC2(C)C)CC(C)(C)c2ccc(OC(=O)c3ccc(C(*)=O)cc3)cc21", "note": "(repeat unit)", "CH4 permeability": 4.22, "CO2 permeability": 55.7, "N2 permeability": 2.98, "O2 permeability": 13.4}
{"smiles": "*c1ccc(-c2ccc(C(*)(c3ccccc3)C(F)(F)F)cc2)cc1", "note": "(repeat unit)", "CH4 permeability": 10, "CO2 permeability": 166, "H2 permeability": 114, "N2 permeability": 6.6, "O2 permeability": 25}
{"smiles": "*CC(C)O*", "note": "(repeat unit)", "CH4 permeability": 34, "CO2 permeability": 190, "H2 permeability": 42, "N2 permeability": 11, "O2 permeability": 28}
{"smiles": "*Oc1ccc(C(=O)c2ccc(-c3ccc(C(=O)c4ccc(Oc5ccc(S(=O)(=O)c6ccc(*)cc6)cc5)cc4)cc3)cc2)cc1", "note": "(repeat unit)", "CH4 permeability": 0.12, "CO2 permeability": 3.27, "H2 permeability": 8.38, "N2 permeability": 0.11, "O2 permeability": 0.64}
{"smiles": "*c1ccc2c(c1C)N1Cc3ccc(N4C(=O)c5ccc(C(c6ccc7c(c6)C(=O)N(*)C7=O)(C(F)(F)F)C(F)(F)F)cc5C4=O)c(C)c3N(C2)C1", "note": "(repeat unit)", "CH4 permeability": 6.3, "CO2 permeability": 190, "H2 permeability": 322, "N2 permeability": 10, "O2 permeability": 50}
{"smiles": "*c1ccc(Oc2ccc(-c3ccc(-c4ccc(Oc5ccc(N6C(=O)c7ccc(C(c8ccc9c(c8)C(=O)N(*)C9=O)(C(F)(F)F)C(F)(F)F)cc7C6=O)cc5)c(C(F)(F)F)c4)cc3)cc2C(F)(F)F)cc1", "note": "(repeat unit)", "CH4 permeability": 1.19, "CO2 permeability": 33.1, "N2 permeability": 2.87, "O2 permeability": 15.2}
{"smiles": "*c1ccc(-c2cc(C)c(-c3ccc(*)c(C)c3)cc2C)cc1C", "note": "(repeat unit)", "CH4 permeability": 1.1, "H2 permeability": 51, "N2 permeability": 1.6, "O2 permeability": 8.6}
{"smiles": "*Oc1ccc(C2(c3ccc(Oc4ccc(S(=O)(=O)c5ccc(*)cc5)cc4)c(C)c3)OC(=O)c3ccccc32)cc1C", "note": "(repeat unit)", "CH4 permeability": 0.0727, "CO2 permeability": 3.12, "H2 permeability": 10.8, "N2 permeability": 0.11, "O2 permeability": 0.868}
{"smiles": "*Oc1ccc(Cc2ccc(Oc3c(F)c(F)c(COC(C4CCCC(C(OCc5c(F)c(F)c(*)c(F)c5F)(C(F)(F)F)C(F)(F)F)C4)(C(F)(F)F)C(F)(F)F)c(F)c3F)cc2)cc1", "note": "(repeat unit)", "CH4 permeability": 0.33, "CO2 permeability": 7.6, "H2 permeability": 18, "N2 permeability": 0.55, "O2 permeability": 2.3}
{"smiles": "*C(=C(*)c1ccc2c(c1)C(C)(C)CC2(C)C)c1ccc(Br)cc1", "note": "(repeat unit)", "CH4 permeability": 22400, "CO2 permeability": 32800, "H2 permeability": 20700, "N2 permeability": 9200, "O2 permeability": 11400}
{"smiles": "*CC(*)OC(=O)c1cccc(C)c1", "note": "(repeat unit)", "CH4 permeability": 0.118, "CO2 permeability": 2.13, "N2 permeability": 0.0875, "O2 permeability": 0.496}
{"smiles": "*C(=C(*)c1ccccc1)c1ccccc1", "note": "(repeat unit)", "CH4 permeability": 3700, "CO2 permeability": 6600, "N2 permeability": 2720, "O2 permeability": 3600}
{"smiles": "*C(=O)c1ccc(C2(c3ccc(C(=O)c4ccc(Oc5ccc(C(=O)c6cccc(C(=O)c7ccc(Oc8ccc(*)cc8)cc7)c6)cc5)cc4)cc3)OC(=O)c3ccccc32)cc1", "note": "(repeat unit)", "CH4 permeability": 0.0276, "CO2 permeability": 0.91, "H2 permeability": 5.3, "N2 permeability": 0.031, "O2 permeability": 0.27}
{"smiles": "*C(C(=O)OC(C)CC)C(*)C(=O)OC(C)(C)C", "note": "(repeat unit)", "H2 permeability": 145, "N2 permeability": 13, "O2 permeability": 39}
{"smiles": "*c1c(C)c(C)c(-n2c(=O)c3cc4oc5cc6c(cc5oc4cc3c2=O)C2(CC(C)(C)c3cc4oc5cc7c(=O)n(*)c(=O)c7cc5oc4cc32)CC6(C)C)c(C)c1C", "note": "(repeat unit)", "CH4 permeability": 77, "CO2 permeability": 1100, "H2 permeability": 530, "N2 permeability": 47, "O2 permeability": 150}
{"smiles": "*Oc1ccc(C(C)(C)c2ccc(OC(=O)c3cc(C(*)=O)cc(C(C)(C)C)c3)c(C(C)C)c2)cc1C(C)C", "note": "(repeat unit)", "CH4 permeability": 1.43, "CO2 permeability": 16.1, "H2 permeability": 41.4, "N2 permeability": 1.08, "O2 permeability": 5.03}
{"smiles": "*Nc1ccc(*)cc1", "note": "(repeat unit)", "CH4 permeability": 0.0094, "CO2 permeability": 0.67, "H2 permeability": 3.66, "N2 permeability": 0.0165, "O2 permeability": 0.135}
{"smiles": "*c1ccc(Cc2ccc(N3C(=O)c4ccc(-c5ccc6c(c5)C(=O)N(*)C6=O)cc4C3=O)cc2Br)c(Br)c1", "note": "(repeat unit)", "CH4 permeability": 0.0054, "CO2 permeability": 0.315, "N2 permeability": 0.0103, "O2 permeability": 0.0923}
{"smiles": "*c1ccc(Cc2ccc(N3C(=O)c4ccc(Sc5ccc6c(c5)C(=O)N(*)C6=O)cc4C3=O)cc2)cc1", "note": "(repeat unit)", "H2 permeability": 5.43, "N2 permeability": 0.027, "O2 permeability": 0.246}
{"smiles": "*c1ccc(-c2ccc(N3C(=O)c4ccc([Si](C)(C)c5ccc6c(c5)C(=O)N(*)C6=O)cc4C3=O)c(C)c2)cc1C", "note": "(repeat unit)", "H2 permeability": 10.9, "N2 permeability": 0.094, "O2 permeability": 0.663}
{"smiles": "*Oc1ccc(C(c2ccc(OC(=O)c3cc(C(*)=O)cc(C(C)(C)C)c3)cc2)(C(F)(F)F)C(F)(F)F)cc1", "note": "(repeat unit)", "CH4 permeability": 3.47, "CO2 permeability": 56.9, "H2 permeability": 86.7, "N2 permeability": 3.72, "O2 permeability": 15.7}
{"smiles": "*c1c(C)c(C)c(N2C(=O)c3ccc(Oc4c(C)cccc4Oc4ccc5c(c4)C(=O)N(*)C5=O)cc3C2=O)c(C)c1C", "note": "(repeat unit)", "CH4 permeability": 0.7, "CO2 permeability": 27, "H2 permeability": 51, "N2 permeability": 0.83, "O2 permeability": 4.8}
